Measurements published in patent US7135466B2 (Kirin Beer Kabushiki Kaisha, priority 1999, dated 2006).
Like-named read-outs stand apart in the source and are kept apart here.

Experiments:
[1] = system: neointima of balloon-injured left carotid artery; test: Rat carotid balloon injury model; type: in vivo; details: po, 336 h, read-out: I/M ratio, inhibition (%)
Protocol: Rat Carotid Balloon Injury Model
Wistar male rats ([…]) were anesthetized with pentobarbital anesthesia, the right femoral region was incised from the rats, a Fogaty 2F catheter was inserted through the right femoral artery and was led to the left carotid artery, and abrasion was made three times with an expansion diameter of 2.5 mm.
The test compound was suspended in 1% cremophore, and the suspension was orally administered at 0.4 ml/100 g B.W. twice a day through an oral probe for rats for 2 weeks from the day before an operation. On the second week after the operation, the rats were sacrificed by ether. The left carotid artery was removed and was fixed in buffered formalin. Sliced preparations embedded in paraffin were stained with HE and were subjected to image analysis for the measurement of the neointima area (I) and media area (M) in the section of injured blood vessal. I/M was calculated as an index for the evaluation of drug efficacy.

human KDR = molecular target: T1, human KDR (Homo sapiens, UniProt P35968); test: Inhibitory activity against KDR phosphorylation (NIH 3T3 cells transfected with human KDR, VEGF); type: cell-based; details: VEGF 100 ng/ml
T1 construct: expressed in transfected cells; host or cells: NIH 3T3 cells
T1 sequence (P35968 20-1356): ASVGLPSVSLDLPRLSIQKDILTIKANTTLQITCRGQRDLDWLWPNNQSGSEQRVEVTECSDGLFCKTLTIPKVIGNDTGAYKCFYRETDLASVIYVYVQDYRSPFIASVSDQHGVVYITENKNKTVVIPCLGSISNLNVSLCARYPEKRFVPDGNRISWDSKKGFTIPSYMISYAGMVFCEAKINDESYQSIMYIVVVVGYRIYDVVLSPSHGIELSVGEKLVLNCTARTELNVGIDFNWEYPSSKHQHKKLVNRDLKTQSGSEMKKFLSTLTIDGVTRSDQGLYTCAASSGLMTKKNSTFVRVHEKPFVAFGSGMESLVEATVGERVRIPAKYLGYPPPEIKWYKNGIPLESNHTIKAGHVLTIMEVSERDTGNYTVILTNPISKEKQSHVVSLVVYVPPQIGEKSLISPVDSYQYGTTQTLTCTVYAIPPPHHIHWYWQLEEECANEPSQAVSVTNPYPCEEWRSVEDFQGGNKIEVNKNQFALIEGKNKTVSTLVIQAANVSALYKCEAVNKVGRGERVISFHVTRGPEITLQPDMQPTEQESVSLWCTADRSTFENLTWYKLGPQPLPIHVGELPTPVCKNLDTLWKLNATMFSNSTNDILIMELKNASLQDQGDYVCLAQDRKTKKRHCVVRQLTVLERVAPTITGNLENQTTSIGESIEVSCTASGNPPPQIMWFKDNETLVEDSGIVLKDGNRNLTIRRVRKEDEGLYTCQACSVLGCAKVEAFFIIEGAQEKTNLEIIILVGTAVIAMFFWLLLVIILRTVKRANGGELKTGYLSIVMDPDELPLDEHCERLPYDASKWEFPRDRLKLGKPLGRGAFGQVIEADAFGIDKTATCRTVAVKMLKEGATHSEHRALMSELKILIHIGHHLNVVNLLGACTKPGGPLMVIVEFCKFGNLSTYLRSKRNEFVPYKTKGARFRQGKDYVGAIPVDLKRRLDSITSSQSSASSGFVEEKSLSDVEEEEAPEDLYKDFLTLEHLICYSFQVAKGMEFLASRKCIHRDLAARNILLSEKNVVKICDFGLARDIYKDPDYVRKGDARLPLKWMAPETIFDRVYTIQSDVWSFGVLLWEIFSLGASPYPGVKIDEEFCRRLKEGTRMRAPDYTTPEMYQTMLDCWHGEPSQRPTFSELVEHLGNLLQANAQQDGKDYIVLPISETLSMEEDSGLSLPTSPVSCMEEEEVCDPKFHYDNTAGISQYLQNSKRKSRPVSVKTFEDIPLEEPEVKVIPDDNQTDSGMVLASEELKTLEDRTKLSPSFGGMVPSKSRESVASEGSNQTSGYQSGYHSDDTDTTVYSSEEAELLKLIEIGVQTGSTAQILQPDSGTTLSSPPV
Protocol: Measurement of Inhibitory Activity Against KDR Phosphorylation
NIH 3T3 cells (Sawano A et al., Cell Growth & Differentiation, 7, 213–221 (1996)) prepared by transfection of human KDR were cultured in a DMEM medium containing 10% FBS (GIBCO BRL) within a 5% carbon dioxide incubator until 50 to 70% confluent. The harvested cells were inoculated into wells of a collagen-type one-coat 96-well flat-bottom plate, each containing the same medium, in an amount of 1.5×10^4 per well, followed by cultivation at 37° C. overnight. The medium was then replaced by a DMEM medium containing 0.1% FBS. A solution of a test compound in dimethyl sulfoxide was added to each well, and the cultivation was carried out at 37° C. for additional one hr. A human recombinant vascular endothelial growth factor (hereinafter abbreviated to “VEGF”) was added to a concentration of 100 ng/ml, and the stimulation of cells was carried out at 37° C. for 2 min. The medium was removed, the cells were washed with phosphate buffered saline (pH 7.4), and 50 μl of a solubilization buffer (20 mM HEPES (pH 7.4), 150 mM NaCl, 0.2% Triton X-100, 10% glycerol, 5 mM sodium orthovanadylate, 5 mM disodium ethylenediaminetetraacetate, and 2 mM Na4P2O7) was then added thereto. The mixture was shaken at 4° C. for 2 hr to prepare a cell extract.
An anti-phospho-tyrosine antibody (PY20; Transduction Laboratories) was immobilized on a microplate for ELISA (Maxisorp; NUNC), and the whole quantity of the cell extract was transferred to the wells, and the immobilized antibody was reacted with the phosphorylated protein at 4° C. overnight. After washing, an anti-KDR antibody (Santa Cruz) was allowed to react at room temperature for one hr, and, further, after washing, a peroxidase-labeled anti-rabbit Ig antibody (Amersham) was allowed to react at room temperature for one hr. After washing, a chromophoric substrate for peroxidase (Sumitomo Bakelite Co., Ltd.) was added thereto and was allowed to react at room temperature. After a suitable level of color development, a reaction termination solution was added to stop the reaction, and the absorbance at 450 nm was measured with a microplate reader. The KDR phosphorylation activity for each well was determined by presuming the absorbance with the addition of VEGF and without the addition of the medicament to be 100% KDR phosphorylation activity and the absorbance without the medicament and VEGF to be 0% KDR phosphorylation activity.
The concentration of the test compound was varied on several levels, the inhibition (%) of KDR phosphorylation was determined for each case, and the concentration of the test compound necessary for inhibiting 50% of KDR phosphorylation (IC50) was calculated.

c-kit = molecular target: T2, c-kit (Homo sapiens, UniProt P10721); test: Inhibitory activity against c-kit autophosphorylation (MO7e cells, h-SCF); type: cell-based; details: for IC50: MO7e cells, read-out: c-kit IC50; for inhibition at 1 µM: Mo7e
T2 construct: MO7e (human megakaryocytic leukemia cell line) which had been arrested for 20 hr; endogenous in cells; host or cells: MO7e human megakaryocytic leukemia cell line
T2 sequence (P10721 26-976): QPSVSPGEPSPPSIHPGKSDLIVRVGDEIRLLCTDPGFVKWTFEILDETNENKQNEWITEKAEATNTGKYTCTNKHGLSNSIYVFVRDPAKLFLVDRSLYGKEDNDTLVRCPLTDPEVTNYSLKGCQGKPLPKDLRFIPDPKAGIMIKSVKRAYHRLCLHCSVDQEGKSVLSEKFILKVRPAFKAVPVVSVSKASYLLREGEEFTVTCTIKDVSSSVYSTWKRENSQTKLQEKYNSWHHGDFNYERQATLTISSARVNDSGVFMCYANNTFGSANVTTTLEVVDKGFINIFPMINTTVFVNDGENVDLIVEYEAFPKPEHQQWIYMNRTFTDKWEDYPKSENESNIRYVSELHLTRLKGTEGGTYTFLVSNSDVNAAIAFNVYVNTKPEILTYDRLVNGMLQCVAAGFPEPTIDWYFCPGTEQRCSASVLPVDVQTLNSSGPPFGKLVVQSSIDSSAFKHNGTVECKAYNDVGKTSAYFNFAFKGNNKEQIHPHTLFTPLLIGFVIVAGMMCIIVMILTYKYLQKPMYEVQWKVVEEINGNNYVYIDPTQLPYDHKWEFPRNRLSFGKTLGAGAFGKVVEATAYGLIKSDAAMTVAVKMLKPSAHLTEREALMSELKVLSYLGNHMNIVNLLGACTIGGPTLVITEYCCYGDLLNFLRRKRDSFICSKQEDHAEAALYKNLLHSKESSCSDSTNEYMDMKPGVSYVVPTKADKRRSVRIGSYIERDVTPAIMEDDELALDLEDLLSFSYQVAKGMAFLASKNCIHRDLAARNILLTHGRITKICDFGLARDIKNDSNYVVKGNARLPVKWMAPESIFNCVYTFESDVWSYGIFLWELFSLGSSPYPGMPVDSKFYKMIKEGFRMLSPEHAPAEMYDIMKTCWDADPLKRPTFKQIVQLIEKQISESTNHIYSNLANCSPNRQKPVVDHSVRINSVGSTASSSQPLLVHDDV
Outline: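 MO7e cells, arrested for 20 hr, were pretreated with test compound in DMSO for 1 hr and then stimulated with 50 ng/ml h-SCF for 5 min before lysis. Lysates were captured on immobilized anti-phosphotyrosine PY-20, probed with anti-c-kit antibody and HRP anti-rabbit IgG, and read colorimetrically at 450 nm.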

PDGF-Ra = molecular target: T3, PDGF-Ra (Homo sapiens, UniProt P16234); test: Inhibitory activity against PDGF-Ra phosphorylation by PDGF-AA stimulation using G292; type: cell-based; details: > means inhibition at indicated concentration not more than 50%, < and << not less than 50%, read-out: PDGF (E) IC50
T3 construct: host or cells: G-292 human osteosarcoma cells
T3 sequence (P16234 24-1089): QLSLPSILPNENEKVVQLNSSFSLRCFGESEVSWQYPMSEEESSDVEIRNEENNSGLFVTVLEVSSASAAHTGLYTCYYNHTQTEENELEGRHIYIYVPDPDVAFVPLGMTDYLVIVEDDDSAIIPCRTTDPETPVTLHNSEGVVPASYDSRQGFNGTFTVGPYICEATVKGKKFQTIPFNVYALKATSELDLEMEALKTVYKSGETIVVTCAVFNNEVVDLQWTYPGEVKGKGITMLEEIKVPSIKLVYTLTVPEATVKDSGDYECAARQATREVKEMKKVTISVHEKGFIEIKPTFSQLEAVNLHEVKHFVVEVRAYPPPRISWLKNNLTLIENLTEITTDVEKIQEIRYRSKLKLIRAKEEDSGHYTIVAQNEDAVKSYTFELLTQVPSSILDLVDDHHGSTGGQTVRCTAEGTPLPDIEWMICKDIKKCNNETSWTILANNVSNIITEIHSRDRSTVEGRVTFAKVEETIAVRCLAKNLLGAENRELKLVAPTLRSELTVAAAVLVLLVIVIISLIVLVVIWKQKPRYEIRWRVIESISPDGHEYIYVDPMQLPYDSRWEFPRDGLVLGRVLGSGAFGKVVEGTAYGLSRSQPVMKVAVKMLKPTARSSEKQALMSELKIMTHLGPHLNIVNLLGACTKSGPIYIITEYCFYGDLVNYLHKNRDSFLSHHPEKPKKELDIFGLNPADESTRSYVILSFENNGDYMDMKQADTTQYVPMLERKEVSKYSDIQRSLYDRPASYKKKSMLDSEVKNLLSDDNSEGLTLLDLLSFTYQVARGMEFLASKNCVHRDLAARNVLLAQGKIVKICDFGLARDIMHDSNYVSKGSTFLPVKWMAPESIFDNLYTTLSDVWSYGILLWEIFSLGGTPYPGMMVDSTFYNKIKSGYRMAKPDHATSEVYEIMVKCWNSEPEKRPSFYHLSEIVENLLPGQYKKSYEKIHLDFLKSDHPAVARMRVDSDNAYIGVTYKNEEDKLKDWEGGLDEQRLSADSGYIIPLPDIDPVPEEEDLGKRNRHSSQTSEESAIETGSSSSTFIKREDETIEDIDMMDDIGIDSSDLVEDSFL
Outline: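 Read-out: A450 from a sandwich ELISA (PY-20 capture, anti-PDGF-Ra detection, peroxidase colour) of lysates from G-292 cells given compound for 1 hr at 37 °C before a 5 min challenge with PDGF-AA at 50 ng/ml.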

PDGF-R = PDGF-R (Rattus norvegicus, UniProt Q05030); test: PDGF-R autophosphorylation inhibition screening (dot plotting), vascular smooth muscle cells, PDGF-BB; type: cell-based; details: for inhibition at 1 µM: figure in parentheses in −( ), at 1000 nM, read-out: PDGF (D) inhibition (%) at 1000 nM; for IC50: PDGF (D) column
PDGF-R, sequence (Q05030 32-1097): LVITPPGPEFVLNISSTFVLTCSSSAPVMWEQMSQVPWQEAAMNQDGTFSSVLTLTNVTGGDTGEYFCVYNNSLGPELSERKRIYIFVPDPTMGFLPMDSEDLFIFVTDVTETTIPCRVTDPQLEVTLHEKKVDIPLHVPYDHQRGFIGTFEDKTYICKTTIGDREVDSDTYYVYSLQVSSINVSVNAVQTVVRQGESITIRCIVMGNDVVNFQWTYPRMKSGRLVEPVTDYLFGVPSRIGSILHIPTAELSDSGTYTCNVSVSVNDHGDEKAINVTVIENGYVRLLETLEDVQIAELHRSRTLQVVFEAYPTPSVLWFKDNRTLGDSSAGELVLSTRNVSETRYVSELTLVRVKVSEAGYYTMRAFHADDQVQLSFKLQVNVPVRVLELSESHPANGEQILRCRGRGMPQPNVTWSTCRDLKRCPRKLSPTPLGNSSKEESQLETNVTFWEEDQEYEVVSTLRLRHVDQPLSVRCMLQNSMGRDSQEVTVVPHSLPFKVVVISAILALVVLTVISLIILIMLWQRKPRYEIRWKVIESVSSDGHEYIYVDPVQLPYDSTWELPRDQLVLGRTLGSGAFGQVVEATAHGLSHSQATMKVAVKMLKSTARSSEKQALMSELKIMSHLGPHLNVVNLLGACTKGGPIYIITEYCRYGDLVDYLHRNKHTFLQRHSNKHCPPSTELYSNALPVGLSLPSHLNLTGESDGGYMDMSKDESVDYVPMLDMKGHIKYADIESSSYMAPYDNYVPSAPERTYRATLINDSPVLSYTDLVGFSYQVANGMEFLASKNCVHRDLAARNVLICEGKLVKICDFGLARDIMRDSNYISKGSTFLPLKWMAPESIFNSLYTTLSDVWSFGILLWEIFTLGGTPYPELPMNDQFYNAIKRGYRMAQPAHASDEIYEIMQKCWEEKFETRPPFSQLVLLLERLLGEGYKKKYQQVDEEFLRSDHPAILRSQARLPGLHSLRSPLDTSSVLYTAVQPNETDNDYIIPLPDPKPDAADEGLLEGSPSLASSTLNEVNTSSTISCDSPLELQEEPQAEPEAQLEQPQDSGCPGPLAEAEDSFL
Protocol: PDGF-R Autophosphorylation Inhibition Screening (Dot Plotting)
Vascular smooth muscle cells (passage 5 to 10) collected from rat thoracic aorta by the explant method were planted at 8×10^3 cells per well in 96-well plates, subject to a serum starvation state, and 24 hr after the plantation then assayed.
A test compund was added, and the mixture was incubated at 37° C. for one hr. Thereafter, PDGF-BB was added to 50 ng/ml, and the mixture was incubated for 5 min, followed by washing with cold PBS. Lysate buffer (20 μl/well) was then added, SDS buffer ([…]) was added thereto, and 2 μl of the mixture was then spotted on a PDVF membrane.
Treatment was carried out with anti-mouse IgG which had been labelled with peroxidase after treatment with an anti-phosphotyrosine antibody, followed by development in an ECL color development kit (Amersham). Thereafter, the color intensity was quantitatively determined by image analysis.

[2] = in vivo, dose: 30 mg/kg, orally twice a day for 2 weeks, Wistar male rats
[3] = figure in parentheses in −( ), at 1000 nM

IC50 (human KDR) [nM]	IC50 (PDGF-Ra) [nM]	IC50 (c-kit; 50 ng/ml h-SCF) [nM]	inhibition at 1 µM (PDGF-R) [%]	Compound	inhibition in vivo at 30 mg/kg [1, 2] [%]	further results
> 1000				COc1cc2nccc(Oc3cc(C)c(NC(=O)OC4CCCCCC4)cc3C)c2cc1OC [Example 287, Cycloheptyl N-{4-[(6,7-dimethoxy-4-quinolyl)oxy]-2,5-dimethylphenyl}carbamate]	37	IC50 (PDGF-Ra; Pharmacological Test Example 1): 13 nM; IC50 (c-kit; h-SCF 50 ng/ml): 228 nM
108	< 10	192		C#CCC(CC)OC(=O)Nc1ccc(Oc2ccnc3cc(OC)c(OC)cc23)cc1 (stereo not shown) [Example 408, 1-Ethyl-3-butynyl N-{4-[(6,7-dimethoxy-4-quinolyl)oxy]phenyl}carbamate]	50	
692	< 10	34		COc1cc2nccc(Oc3ccc(NC(=O)OCCCN4CCOCC4)cc3)c2cc1OC [Example 421, 3-Morpholinopropyl N-{4-[(6,7-dimethoxy-4-quinolyl)oxy]phenyl}carbamate]	42	
> 1000	50			CCN(CC)CCNC(=S)Nc1ccc(Oc2ncnc3cc(OC)c(OC)cc23)cc1 [Example 516, N-{4-[(6,7-Dimethoxy-4-quinazolinyl)oxy]phenyl}-N′-(2-diethylaminoethyl)thiourea]	32	inhibition at 1 µM (c-kit; figure within parentheses in −( ) or >1000( ), at 1000 nM): 27%
> 1000	21	118		COc1cc2ncnc(Oc3ccc(NC(=O)N[C@H]4CCN(Cc5ccccc5)C4)cc3)c2cc1OC [Example 567, N-[(3S)-1-Benzyltetrahydro-1H-3-pyrrolyl]-N′-{4-[(6,7-dimethoxy-4-quinazolinyl)oxy]phenyl}urea]		inhibition in vivo at 10 mg/kg ([1]; in vivo, *dose: 10 mg/kg, orally twice a day for 2 weeks, Wistar male rats): 24%
> 1000	54	296		COc1cc2nccc(Oc3ccc(NC(=O)NC4CCN(Cc5ccccc5)CC4)cc3)c2cc1OC [Example 590, N-{4-[(6,7-Dimethoxy-4-quinolyl)oxy]phenyl}-N′-[4-(N-benzyl)piperidinyl]urea]	86	
47	< 10	434		COc1cc2nccc(Oc3ccc(NC(=S)NC(=O)c4ccccc4C)cc3)c2cc1OC [Example 614, N-{4-[(6,7-Dimethoxy-4-quinolyl)oxy]-phenyl}-N′-(2-methylbenzoyl)thiourea]	92	
37	17	125		COc1cc2nccc(Oc3ccc(NC(=S)NC(=O)Cc4ccccc4)cc3F)c2cc1OC [Example 615, N-{4-[(6,7-Dimethoxy-4-quinolyl)oxy]-3-fluorophenyl}-N′-(2-phenylacetyl)thiourea]	43	
> 1000	11	355		CCN(CC)CCNC(=O)Nc1ccc(Oc2ccnc3cc(OC)c(OC)cc23)cc1 [Example 622, N-[2-(Diethylamino)ethyl]-N′-{4-[(6,7-dimethoxy-4-quinolyl)oxy]phenyl}urea]	38	
			50	COc1cc2nccc(Oc3ccc(NC(=S)NC(=O)c4ccc([N+](=O)[O-])cc4)c(C)c3C)c2cc1OC [Example 1081, N-{4-[(6,7-Dimethoxy-4-quinolyl)oxy]-2,3-dimethylphenyl}-N′-(4-nitrobenzoyl)thiourea]		inhibition at 1 µM (c-kit; [3]): 47%
			48	COc1cc2nccc(Oc3ccc(NC(=S)NC(=O)c4ccc(Cl)cc4Cl)c(C)c3C)c2cc1OC [Example 1086, N-(2,4-Dichlorobenzoyl)-N′-{4-[(6,7-dimethoxy-4-quinolyl)oxy]-2,3-dimethylphenyl}thiourea]		inhibition at 1 µM (c-kit; [3]): 19%
			15	COc1cc2nccc(Oc3ccc(NC(=S)NC(=O)c4ccc([N+](=O)[O-])cc4)c(C)c3)c2cc1OC [Example 1092, N-{4-[(6,7-Dimethoxy-4-quinolyl)oxy]-2-methylphenyl}-N′-(4-nitrobenzoyl)thiourea]		inhibition at 1 µM (c-kit; [3]): 10%
			20	COc1ccc(C(=O)NC(=S)Nc2ccc(Oc3ccnc4cc(OC)c(OC)cc34)cc2C)cc1 [Example 1095, N-{4-[(6,7-Dimethoxy-4-quinolyl)oxy]-2-methylphenyl}-N′-(4-methoxybenzoyl)thiourea]		inhibition at 1 µM (c-kit; [3]): 25%
			30	COc1cc2nccc(Oc3ccc(NC(=S)NC(=O)c4ccc(C)cc4)c(C)c3)c2cc1OC [Example 1096, N-{4-[(6,7-Dimethoxy-4-quinolyl)oxy]-2-methylphenyl}-N′-(4-methylbenzoyl)thiourea]		inhibition at 1 µM (c-kit; [3]): 3%
			43	COc1ccc(C(=O)NC(=S)Nc2ccc(Oc3ccnc4cc(OC)c(OC)cc34)cc2F)c(OC)c1 [Example 1123, N-(2,4-Dimethoxybenzoyl)-N′-{4-[(6,7-dimethoxy-4-quinolyl)oxy]-2-fluorophenyl}thiourea]		IC50 (c-kit; h-SCF stimulation): 961 nM
				{4-[(6,7-Dimethoxy-4-quinolyl)oxy]phenyl}[2-(3-methoxy-4-nitrophenoxy)ethyl] sulfoxide [Example 838]		IC50 (PDGF-R; > means inhibition at indicated concentration not more than 50%, < not less than 50%): 590 nM; c-kit inhibition (%) at 1000 nM (c-kit; [3]): −(23) %

Compound	IC50 (human KDR) [nM]	IC50 (PDGF-Ra) [nM]	IC50 (c-kit; 50 ng/ml h-SCF) [nM]	inhibition at 1 µM (PDGF-R) [%]	inhibition in vivo at 30 mg/kg [1, 2] [%]	further results
COc1cc2nccc(Oc3ccc(NC(=O)Oc4ccccc4C)cc3)c2cc1OC [Example 223, 2-Methylphenyl N-{4-[(6,7-dimethoxy-4-quinolyl)oxy]phenyl}carbamate]	38					inhibition in vivo at 30 mg/kg [1]: 41%; IC50 (c-kit; h-SCF 50 ng/ml): 101 nM
N-{4-[(6,7-Dimethoxy-4-quinolyl)oxy]-2-fluorophenyl}-N′-(methylamino)urea [Example 611]			1070			IC50 (PDGF-R): 95 nM
